Laboratory results published in paper PMC5201116, “Bioactive Flavonoids and Catechols as Hif1 and Nrf2 Protein Stabilizers - Implications for Parkinson’s Disease” (Aging and Disease, 2016).

Tests used:
[1] = test system: Neh2-luc reporter (SH-SY5Y cell line); experiment: Neh2-luc reporter assay; assay type: cell-based; settings: Homo sapiens, SH-SY5Y
Description: SH-SY5Y cell lines stably expressing HIF1 ODD-luc or Neh2-luc reporters were grown in the DMEM/F12 supplemented with GlutaMAX (Thermo Fisher Scientific) containing 10% FBS, 100 U/ml penicillin, and 100 μg/ml streptomycin and plated into 384-well white flat-bottom plates at 7,000 cell/well in 30 µl serum and incubated overnight at 37°C, 5% CO2. The next day compounds were added to a final concentration of 10 µM and the plates were incubated for 3 hours at 37°C. Reporter activation after 3 h incubation with the studied compound was compared to that for ciclopirox (HIF1 ODD-luc reporter) or TBHQ (Neh2-luc reporter), taken as 100%. Luciferase reporter activity was measured with a SteadyGlo reagent from Promega providing stable reading for 1 h.
Cells were plated at the density of 25,000 cell per well using a WellMate multichannel dispenser from Matrix (Thermo Fisher Scientific, Waltham, MA) and grown overnight on DMEM/F12+GlutaMAX (100 µl per well). Then an inhibitor was added, and the plates were incubated for a fixed time interval; the medium was removed, cells lysed, and luciferase activity was measured on a SpectraMax M5e platereader (Molecular Devices, Sunnyvale, CA) with BrightGlo™ reagent (Promega, Madison, WI). The reporter activation was normalized to the background luminescence. The effect of 0.5 mM N-acetylcysteine (NAC) was studied by simultaneous addition of 5 µL of 10 mM stock of NAC in water and 2 µL of 50x stock solutions of a flavonoid in DMSO.

[2] = test system: VEGF mRNA in immature primary cortical neurons; experiment: VEGF mRNA induction, real-time RT-PCR; assay type: cell-based; settings: Fig. 4B
Description: For VEGF gene expression studies, total RNA was isolated from immature primary cortical neurons, pretreated overnight with the indicated concentration of a bioactive compound, using the NucleoSpin RNA II kit (Macherey-Nagel, Bethlehem, PA) according to manufacturer’s protocol. Real-time PCR was performed in triplicate as a duplex reaction using a VEGF (Mm01281449_m1) gene expression assay with a 6-carboxyfluorescein-labeled probe, and a β actin gene expression assay with a VIC-labeled probe (Applied Biosystems, Foster City, CA), so that gene amplification could be normalized to β actin. These experiments were performed using a 7500 Real-time PCR System (Applied Biosystems) using standard PCR protocol and amplification conditions.

[3] = test system: C57Bl6 mice, MPTP model of Parkinson's disease; experiment: Acute MPTP mouse model: striatal dopamine and metabolites by HPLC; assay type: in vivo
Description: Acute MPTP-intoxication paradigm was used to test the neuroprotective effects of NDGA using male C57Bl6 mice. In this protocol, 10-week-old C57Bl6 mice (n = 8-10 per group) were divided into four different groups consisting of 1) a control group treated with saline alone; 2) a group treated with MPTP alone; 3) a group treated with NDGA alone and; 4) group treated with NDGA in combination with MPTP. NDGA was dissolved in 1:4 ethanol:neobee oil (a derivative of coconut oil). MPTP 10 mg/kg free base was administered intraperitoneally three times a day every two hours. Animals with NDGA in combination with MPTP were administered NDGA by oral gavage with 50 and 100mg/kg/day body weight of the drug in 100 microliter volume once a day for 4 days before MPTP and once a day for 3 days after MPTP. On the day of MPTP NDGA was administered to mice 2 hours before the initiation of MPTP. Animals belonging to MPTP and control groups received the vehicle (ethanol:neobee oil, 1:4) whereas the drug alone group received respective doses of NDGA at the same frequency. All animals were sacrificed on the 7th day after MPTP.
Striatal levels of dopamine (DA) and its metabolites 3, 4-dihydroxyphenylacetic acid (DOPAC), and homovanillic acid (HVA) were measured after sonication and centrifugation in chilled 0.1 M perchloric acid (PCA, 100 µl/mg tissue) as previously described. Briefly, 15 µl supernatant was isocratically eluted through an 80 x 4.6 mm C18 column (ESA, Inc. Chelmsford, MA) with a mobile phase containing 0.1 M LiH2PO4, 0.85 mM 1-octanesulfonic acid and 10% (v/v) methanol and detected by a 2-channel Coulochem II electrochemical detector (ESA, Inc. Chelmsford, MA). Concentrations of dopamine, DOPAC and HVA are expressed as ng per mg protein. The protein concentrations of tissue homogenates were measured according to BCA assay (Pierce Biotech). For MPP+ measurement NDGA was administered at a dose of 100mg/kg/day once daily for four days followed by a dose on the 5th day 30 minutes before MPTP (30mg/kg free base). Striatal tissues were sonicated and centrifuged in 0.1 M PCA and an aliquot of supernatant was injected onto a Brownlee aquapore x 03-224 cation exchange column (Rainin, Woburn, MA). Samples were eluted isocratically with 20 mM boric acid-sodium borate buffer, pH 7.75, containing 3 mM tetrabutylammonium hydrogen sulfate, 0.25 mM 1-heptanesulfonic acid and 10% isopropanol. MPP^+ levels were detected with a fluorescence detector set by excitation at 295 nm and emission at 375nm.

[4] = NDGA+MPTP group, NDGA 100mg/kg/day oral, 7th day after MPTP

CC(Cc1ccc(O)c(O)c1)C(C)Cc1ccc(O)c(O)c1 (centres unmarked) [compound 28, 4,4'-(2,3-dimethylbutane-1,4-diyl)dibenzene-1,2-diol]
EC50 ([1]; Neh2-luc): 2000 nM
fold induction at 10 µM ([1]; at 10 µM, 3 h incubation, read-out: Neh2-luc fold activation): 15 ± 1.8
VEGF induction potency relative to FG-4592 [2]: at least 2 times
protection against MPTP-induced loss of striatal dopamine, DOPAC and HVA ([3]; NDGA 50mg/kg/day): not
protection against MPTP-induced loss of striatal dopamine, DOPAC and HVA ([3]; NDGA 100mg/kg/day): protected
Striatal DOPAC ([3]; NDGA alone group, oral gavage): 7.59 ± 1.35 ng/mg protein
Striatal DOPAMINE ([3]; NDGA alone group, oral gavage): 88.4 ± 6.2 ng/mg protein
Striatal HVA ([3]; NDGA alone group, oral gavage): 7.5 ± 1.66 ng/mg protein
Striatal DOPAC [3, 4]: 6.04 ± 1.14 ng/mg protein
Striatal DOPAMINE [3, 4]: 55.3 ± 5.7 ng/mg protein
Striatal HVA [3, 4]: 7.4 ± 0.96 ng/mg protein
